Data reported in US8377974B2 (Millennium Pharmaceuticals, Inc., priority 2004, dated 2013).

Target: T1, human plasma protein factor Xa (Homo sapiens, UniProt P00742)
T1 construct: measure proteolytic activity of the enzyme (factor Xa); purchased Haematologic Technologies (Essex Junction, Vt.); host or cells: human plasma
Experiment: Factor Xa IC50 determination: cleavage of paranitroanilide substrate S-2765 in 96-well plates
Format: biochemical
Settings: fXa 1 nM, S-2765 100 μM, Tris buffered saline pH 7.4, room temperature
How it was run: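 Initial rates of S-2765 (100 μM final) cleavage, read at 405 nm for 2 min, fitted with a four-parameter equation to give IC50. Enzyme: 1 nM human plasma fXa, 5 min room-temperature preincubation with inhibitor (0.01 nM–10 μM) in 20 mM Tris, 150 mM NaCl, 5 mM CaCl2, 0.1% BSA, 5% DMSO, pH 7.4; duplicates.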

T1 sequence (P00742 235-488 limits assumed): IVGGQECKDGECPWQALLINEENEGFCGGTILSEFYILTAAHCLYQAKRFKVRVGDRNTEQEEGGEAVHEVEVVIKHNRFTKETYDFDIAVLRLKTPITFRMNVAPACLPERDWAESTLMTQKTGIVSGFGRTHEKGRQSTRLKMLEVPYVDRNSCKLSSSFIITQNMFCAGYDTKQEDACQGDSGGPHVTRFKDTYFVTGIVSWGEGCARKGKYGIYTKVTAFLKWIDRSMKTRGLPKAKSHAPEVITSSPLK
T1 sequence (P00742 41-179 partner limits assumed): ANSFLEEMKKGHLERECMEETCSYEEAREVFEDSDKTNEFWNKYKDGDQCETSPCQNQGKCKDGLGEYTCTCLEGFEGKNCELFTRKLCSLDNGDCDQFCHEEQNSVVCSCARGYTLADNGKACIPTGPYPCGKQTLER

SMILES | IC50
O=C(NCC1CC(c2ccc(-n3cccc(F)c3=O)cc2)=NO1)c1ccc(Cl)s1 (stereo not drawn) [Example 279, 5-Chloro-N-((3-(4-(3-fluoro-2-oxopyridin-1(2H)-yl)phenyl)-4,5-dihydroisoxazol-5-yl)methyl)thiophene-2-carboxamide] | ≤ 100 nM
CN1CCN(c2ccc(-n3cc(CNC(=O)c4ccc(Cl)s4)nn3)cn2)CC1 [Example 391, 5-Chloro-N-((1-(6-(4-methylpiperazin-1-yl)pyridin-3-yl)-1H-1,2,3-triazol-4-yl)methyl)thiophene-2-carboxamide] | 100 to 500 nM
CN(C)C(=N)c1ccc(-c2cc(CNC(=O)c3ccc(Cl)s3)on2)cc1 [Example 21, 5-Chloro-thiophene-2-carboxylic acid {3-[4-(N,N-dimethyl-carbamimidoyl)-phenyl]-isoxazol-5-ylmethyl}-amide] | ≤ 100 nM
Cc1cnccc1Nc1ccc(C2=NOC(CNC(=O)c3ccc(Cl)s3)C2)cc1 (stereo not drawn) [Example 400, 5-Chloro-N-((3-(4-(3-methylpyridin-4-ylamino)phenyl)-4,5-dihydroisoxazol-5-yl)methyl)thiophene-2-carboxamide] | ≤ 100 nM
O=C(NCc1cc(-c2ccc(Nc3cccnc3)cc2)no1)c1ccc(Cl)s1 [Example 253, 5-Chloro-thiophene-2-carboxylic acid {3-[4-(pyridin-3-ylamino)-phenyl]-isoxazol-5-ylmethyl}-amide] | ≤ 100 nM
CC(C)Oc1cc(C(=N)N2CCCCC2)ccc1-c1cc(CNC(=O)c2ccc(Cl)s2)on1 [Example 129, 5-Chloro-thiophene-2-carboxylic acid {3-[4-(imino-piperidin-1-yl-methyl)-2-isopropoxy-phenyl]-isoxazol-5-ylmethyl}-amide] | ≤ 100 nM
C[C@@H](NC(=O)c1ccc(Cl)s1)c1cc(-c2ccc(C(=N)N3CCCC3)cc2)no1 [Example 51, (R)-5-Chloro-thiophene-2-carboxylic acid (1-{3-[4-(imino-pyrrolidin-1-yl-methyl)-phenyl]-isoxazol-5-yl}-ethyl)-amide] | ≤ 100 nM
O=C(NCC1CC(c2ccc(-c3cc(Cl)ccc3CN3CCCC3)cc2)=NO1)c1ccc(Cl)s1 (stereo not drawn) [Example 205, 5-Chloro-thiophene-2-carboxylic acid [3-(5′-chloro-2′-pyrrolidin-1-ylmethyl-biphenyl-4-yl)-4,5-dihydro-isoxazol-5-ylmethyl]-amide] | ≤ 100 nM
CC1(CNC(=O)c2ccc(Cl)s2)CC(c2ccc(Cl)cc2)=NO1 (stereo not drawn) [Example 154, 5-Chloro-thiophene-2-carboxylic acid [3-(4-chloro-phenyl)-5-methyl-4,5-dihydro-isoxazol-5-ylmethyl]-amide] | ≥ 500 nM
O=C(NCC1CC(c2ccc(-c3ccccn3)cc2)=NO1)c1ccc(Cl)s1 (stereo not drawn) [Example 219, 5-Chloro-thiophene-2-carboxylic acid [3-(4-pyridin-2-yl-phenyl)-4,5-dihydro-isoxazol-5-ylmethyl]-amide] | ≤ 100 nM
CC1(CNC(=O)c2ccc(Cl)s2)CC(c2ccc(C(N3CCC3)=[N+]3CCC3)cc2)=NO1 (stereo not drawn) [Example 63, 5-Chloro-thiophene-2-carboxylic acid {3-[4-(azetidin-1-yl-azetidin-1-ylidene-methyl)-phenyl]-5-methyl-4,5-dihydro-isoxazol-5-ylmethyl}-amide] | ≤ 100 nM
CN(Cc1ccco1)C(=N)c1ccc(C2=NOC(C)(CNC(=O)c3ccc(Cl)s3)C2)cc1 (stereo not drawn) [Example 67, 5-Chloro-thiophene-2-carboxylic acid {3-[4-(N-furan-2-ylmethyl-N-methyl-carbamimidoyl)-phenyl]-5-methyl-4,5-dihydro-isoxazol-5-ylmethyl}-amide] | ≤ 100 nM
CN(Cc1cc(-c2ccc(C(=N)N3CCCCC3)cc2)no1)C(=O)c1ccc(Cl)s1 [Example 38, 5-Chloro-thiophene-2-carboxylic acid {3-[4-(imino-piperidin-1-yl-methyl)-phenyl]-isoxazol-5-ylmethyl}-methyl-amide] | ≥ 500 nM
CCOC(=O)C1CCN(C(=N)c2ccc(-c3cc(CNC(=O)c4ccc(Cl)s4)on3)cc2)CC1 [Example 25, 1-{[4-(5-{[(5-Chloro-thiophene-2-carbonyl)-amino]-methyl}-isoxazol-3-yl)-phenyl]-imino-methyl}-piperidine-4-carboxylic acid ethyl ester] | ≤ 100 nM
CN(C)Cc1ccc(-c2cccc(-c3cc(CNC(=O)c4ccc(Cl)s4)on3)c2)cc1 [Example 272, 5-Chloro-thiophene-2-carboxylic acid [3-(4′-dimethylaminomethyl-biphenyl-3-yl)-isoxazol-5-ylmethyl]-amide] | ≥ 500 nM
CN1CCN=C1c1ccc(C2=NOC(CNC(=O)c3ccc(Cl)s3)C2)c(N2CCCC2)c1 (stereo not drawn) [Example 79, 5-Chloro-thiophene-2-carboxylic acid {3-[4-(1-methyl-4,5-dihydro-1H-imidazol-2-yl)-2-pyrrolidin-1-yl-phenyl]-4,5-dihydro-isoxazol-5-ylmethyl}-amide] | 100 to 500 nM
N=C(c1ccc(-c2nc(CNC(=O)c3ccc(Cl)s3)co2)cc1)N1CCC(C(N)=O)CC1 [Example 347, 1-((4-(4-((2-Chlorothiophene-5-carboxamido)methyl)oxazol-2-yl)phenyl)(imino)methyl)piperidine-4-carboxamide] | 100 to 500 nM
O=C(NCC1CC(c2ccc(-n3ccccc3=O)cc2)=NO1)c1ccc(Cl)s1 (stereo not drawn) [Example 278, 5-Chloro-N-((3-(4-(2-oxopyridin-1(2H)-yl)phenyl)-4,5-dihydroisoxazol-5-yl)methyl)thiophene-2-carboxamide] | ≤ 100 nM
O=C(O)c1ccc(C2=NOC(CNC(=O)c3ccc(Cl)s3)C2)cc1 (stereo not drawn) [Example 158, 4-(5-{[(5-Chloro-thiophene-2-carbonyl)-amino]-methyl}-4,5-dihydro-isoxazol-3-yl)-benzoic acid] | ≥ 500 nM
COC(=O)c1ccccc1Nc1ccc(C2=NOC(CNC(=O)c3ccc(Cl)s3)C2)cc1 (stereo not drawn) [Example 260, 2-[4-(5-{[(5-Chloro-thiophene-2-carbonyl)-amino]-methyl}-4,5-dihydro-isoxazol-3-yl)-phenylamino]-benzoic acid methyl ester] | ≥ 500 nM
O=C(NCc1cc(-c2ccc(-c3ccccc3CN3CCCC3)cc2)no1)c1ccc(Cl)s1 [Example 210, 5-Chloro-thiophene-2-carboxylic acid [3-(2′-pyrrolidin-1-ylmethyl-biphenyl-4-yl)-isoxazol-5-ylmethyl]-amide] | 100 to 500 nM
CCN(CC)CCN(C)C(=O)c1ccc(-c2cc(CNC(=O)c3ccc(Cl)s3)on2)cc1 [Example 168, 5-Chloro-thiophene-2-carboxylic acid (3-{4-[(2-diethylamino-ethyl)-methyl-carbamoyl]-phenyl}-isoxazol-5-ylmethyl)-amide] | ≥ 500 nM
CN(C)C(=N)c1ccc(-c2cccc(CNC(=O)c3ccc(Cl)s3)c2)cc1 [Example 380, N-((3-(4-(N,N-Dimethylcarbamimidoyl)phenyl)phenyl)methyl)-5-chlorothiophene-2-carboxamide] | ≤ 100 nM
O=C(NCc1cn(-c2ccc(N3CCOCCC3=O)cc2)nn1)c1ccc(Cl)s1 [Example 303, 5-Chloro-N-((1-(4-(5-oxo-1,4-oxazepan-4-yl)phenyl)-1H-1,2,3-triazol-4-yl)methyl)thiophene-2-carboxamide] | ≤ 100 nM
